Assay results reported in patent US20160151458A1, “Use Of Unacylated Ghrelin, Fragments And Analogs Thereof As Antioxidant” (ALIZE PHARMA SAS, priority 2013, published 2016).

Legend:
[1] = system: unilateral hind limb ischemia in C57BL/6J mice (ischemic gastrocnemius muscle); experiment: Murine hind-limb ischemia model; format: in vivo; details: for Pax-7/MyoD+ cells in ischemic muscles: FIG. 2A
Procedure: (§1) Male C57BL/6J mice (Charles River Lab., Wilmington, Mass., USA) were anesthetized and unilateral hind limb ischemia was induced as described^42. The normo-perfused contralateral limb of each mouse was used as an internal control. After hind-limb ischemia, animals (18 mice per group) were treated by intra-peritoneal injection daily from 0 to day 21 with either saline, AG (100 μg/kg) or UAG (100 μg/kg). In selected experiments, mice received intramuscular injections of pre-miR oligonucleotides (5 mice/group). To induce toxic damage, 100 μl of 1% barium chloride (BaCl2, Sigma Aldrich) was injected unilaterally into the hind limb (9 mice). Mice were treated according to European Guidelines and policies as approved by the University of Turin Ethical Committee.
Semiquantitative estimation (by repeated measures analyzed with ANOVA and Newman-Keuls Multiple Comparison test) of foot damage was performed serially using the following classification: 3=dragging of foot (foot necrosis), 2=no dragging but no plantar flexion (foot damage), 1=plantar flexion but no toe flexion (toe damage), and 0=flexing the toes to resist gentle traction on the tail (no damage)^43.
(§2) Gastrocnemius muscle sections from ischemic or normo-perfused limbs were stained with hematoxylin and eosin for histological analysis. The proportion of fibers with central nuclei (regenerating fibers) was measured by MetaMorph software (Life Sciences Research Imaging Systems) in the injured area and the cross-sectional areas of the fibers in the injured and non-injured areas. For IF analysis, muscle sections were processed as described previously^44. The number of cells expressing the indicated markers or CD31 positive vessels was evaluated as previously described^34.
(§3) Intracellular ROS production was evaluated using DCF-DA (5-(and-6)-carboxy-2′,7′-dichlorofluorescein diacetate, […] final concentration) (Molecular Probe, Invitrogen) assay as previously described^23. The formation of TBARS was determined in muscles using the OXI-TEK kit (ZeptoMetrix Corp.) and a luminescence spectrometer (Bio-Rad Laboratories, Hercules, Calif.) with excitation set at 530 nm, emission at 550 nm to measure in-vivo oxidative stress levels^33.

[2] = system: BaCl2-injected gastrocnemius muscles of C57BL/6J mice; experiment: Toxic muscle damage induced by 1% barium chloride (BaCl2); format: in vivo; details: 1% BaCl2; FIG. 3E
Procedure: as §1, §2

[3] = system: SCs transfected with SOD-2 siRNA; experiment: In-vitro ischemia of SCs silenced for SOD-2 by siRNA; format: cell-based, C57BL/6J mice
Procedure: (§4) SCs were isolated from gastrocnemius muscles of C57BL/6J wild type mice subjected to ischemia or C57BL/6J mice lacking the GHSR1a and ghrelin genes (10 mice, kind gift of Professor M. Tschöp)^39. To obtain SCs, muscle samples were subjected to enzymatic digestion as described^45. In selected experiments, SCs were recovered from normo-perfused muscles and subjected to in-vitro ischemia in presence of saline, AG (1 μmol/L) or UAG (1 μmol/L). In-vitro ischemia was induced by incubating cells in DMEM+2% FCS at 5% CO2/95% N2 humidified atmosphere, yielding 1% O2 concentrations for 24 h^18. The in-vitro ischemia was also performed in the presence of SB202190 (1 μmol/L).
(§5) SC cell-cycle progression was evaluated by evaluating the percentage of PCNA-positive cells or by FACS analysis as previously described^46. The percentage of cells in each cell cycle phase was determined by ModFit LT software (Verity Software House. Inc, topsham, ME, USA). Celss proliferation was also assayed by evaluating the percentage of PCNA-positive cells by FACS analysis.
(§6) Cells were lysed and protein detection was obtained as previously described^47. Cells were lysed (50 mmol/L Tris HCl [pH 8.3], 1% Triton X-100, 10 mmol/L PMSF, 100 U/ml aprotinin, 10 μmol/L leupeptin) and protein concentrations were obtained as previously described^47. […] Densitometric analysis was used to calculate the differences in the fold induction of protein levels and normalized to tubulin, a actin or p38MAPK content. Values are reported as relative amount
as §3
(§7) Total RNA was isolated using TRIzol reagent (Invitrogen) from SCs recovered from muscles of treated animals or from SCs subjected to in-vitro ischemia. miR-221/222 expression was evaluated by qRT-PCR as previously described^48. Loss-of-function experiments were performed in SCs transfected for 48 h with anti-miRNA negative control, anti-miR-221/222 antagonists (Applied Biosystem, Foxter Cyto CA, USA), according to the manufacturer's instructions^48.
To obtain SOD-2 inactivation, SCs were transiently transfected with siRNA for SOD-2 or with duplex siRNAs (Qiagen, Valencia, Calif., USA) as previously described^44. Transfection was performed according to the manufacturer's instructions. Whole cell extracts were processed 48 h after transfection. Cell viability was evaluated at the end of each experiment.

[4] = system: SCs transfected with anti-miR-221/222; experiment: Loss-of-function: SCs transfected with anti-miR-221/222 antago-miRs; format: cell-based, mice; details: anti-miR-221/222 transfected SCs; data not shown
Procedure: as §7

healthy volunteers = details: administered concomitantly with ghrelin; cited from earlier work
[5] = system: satellite cells (SCs) from ischemic muscles; experiment: SCs recovered from ischemic muscles of treated mice (ex vivo analysis); format: in vivo, C57BL/6J mice
Procedure: as §1, §4, §6, §3, §7

[6] = system: C2C12 mouse muscular cell line; experiment: ROS production (DCF-DA) in C2C12 cells under oxidative stress; format: cell-based; details: 1 μmol/L; stress by hypoxia (1% O2), AGEs, hyperglycemia (25 mM) or H2O2; FIG. 8
Procedure: Kinetic analysis of ROS production was evaluated by using DCF-DA (5-(and-6)-carboxy-2′,7′-dichlorofluorescein diacetate, 0.5 μmol/L final concentration) (Molecular Probe, Invitrogen) assay. C2C12 cells were cultured with 400 μg/ml Advanced Glycated End-product (AGE) or 25 mM glucose (high glucose HG) for 48 h, H2O2 (100 μM) for 2 h. In parallel experiments C2C12 cells were subjected to hypoxia (DMEM+2% FCS in a 5% CO2-95% N2 humidified atmosphere, yielding to 1% O2 concentrations for 24 h). UAG (1 μmol/L) AZP 531 (1 μmol/L) or AZP-502 (1 μmol/L) was added where indicated.

SCs from double KO mice = experiment: In-vitro ischemia of SCs from double KO mice lacking the GHSR1a and ghrelin genes; format: cell-based, C57BL/6J mice lacking the GHSR1a and ghrelin genes
Procedure: as §4, §5, §6, §3

GHSR-1a = GHSR-1a (Homo sapiens, UniProt Q92847); details: at physiological concentrations; cited from earlier work
primary SCs = experiment: In-vitro ischemia of primary SCs from normo-perfused muscles; format: cell-based, C57BL/6J mice; details: 1 μmol/L, 1% O2 24 h
Procedure: as §4, §5, §6, §3, §7

GHSR-1a, sequence (Q92847 whole entry, the tested form may be a part): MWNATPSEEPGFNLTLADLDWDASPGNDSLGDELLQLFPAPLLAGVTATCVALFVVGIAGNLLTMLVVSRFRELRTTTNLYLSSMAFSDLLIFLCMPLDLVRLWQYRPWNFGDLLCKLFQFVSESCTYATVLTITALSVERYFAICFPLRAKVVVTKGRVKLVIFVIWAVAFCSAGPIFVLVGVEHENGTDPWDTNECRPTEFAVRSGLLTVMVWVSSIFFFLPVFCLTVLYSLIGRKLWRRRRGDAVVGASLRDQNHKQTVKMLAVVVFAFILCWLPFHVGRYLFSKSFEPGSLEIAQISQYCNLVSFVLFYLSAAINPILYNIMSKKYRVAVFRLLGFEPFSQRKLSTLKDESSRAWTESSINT

Substance: Gly-Ser-Ser-Phe-Leu-Ser-Pro-Glu-His-Gln-Arg-Val-Gln-Gln-Arg-Lys-Glu-Ser-Lys-Lys-Pro-Pro-Ala-Lys-Leu-Gln-Pro-Arg (GSSFLSPEHQRVQQRKESKKPPAKLQPR; listed as Homo sapiens) [UAG]
- protection against ischemia-induced damage (overall in vivo effect) ([1]; 100 μg/kg i.p. daily): protect against ischemia-induced damage
- foot damage (functional score) ([1]; 100 μg/kg i.p. daily from day 0, FIG. 1A): damage was significantly higher in saline- and AG-treated groups than in the UAG-treated group
- capillary density, ischemic vs contralateral control muscles of the same animals ([1]; 100 μg/kg i.p. daily, FIG. 1B): no such differences were observed
- number of functional vessels in ischemic muscles ([1]; 100 μg/kg i.p. daily, FIG. 1B): larger number of functional vessels
- CD68-positive inflammatory cells ([1]; 100 μg/kg i.p. daily, FIG. 1E): reduced number of CD68-positive inflammatory cells
- regenerating myofibers in gastrocnemius muscles ([1]; 100 μg/kg i.p. daily, FIGS. 1C, 1D): increased number of regenerating myofibers
- myogenin-positive cells in ischemic muscles ([1]; FIGS. 2E, 2F): increased number of myogenin-positive cells
- Pax-7/MyoD+ cells in ischemic muscles ([1]; day 7): increased number of Pax-7/MyoD+ cells
- Pax-7/MyoD+ cells in ischemic muscles ([1]; day 21): scattered Pax-7/MyoD+ cells were still present
- SOD-2/Pax-7+ cells in ischemic muscle ([1]; double immunostaining, day 7, FIG. 3D): increased number of SOD-2/Pax-7+ cells
- regeneration of skeletal muscle after ROS-independent toxic damage [2]: regeneration of skeletal muscle was no longer observed
- UAG-induced miR-221/222 expression ([3]; SOD-2 knock-down, FIG. 7B): SOD-2 knock-down prevents UAG-induced miR-221/222 expression
- protection against ROS generation ([3]; SOD-2 silenced, FIG. 5B): did not protect SCs against ROS generation
- cell-cycle progression ([3]; SOD-2 silenced, FIG. 5C): the cells did not undergo cell-cycle progression
- p38/MAPK phosphorylation ([3]; SOD-2 silenced, FIG. 5D): did not induce p38/MAPK phosphorylation
- cell-cycle entry and expression of SOD-2, Pax-7, MyoD, myogenin [4]: no longer had any effect
- p-p38/MAPK levels [4]: p-p38/MAPK levels were reduced
- effect on the hyperglycemic effects of ghrelin (healthy volunteers): prevent the hyperglycemic effects of ghrelin
- expression of miR-221 and miR-222 in SCs (qRT-PCR) ([5]; SCs from muscles of treated mice vs controls, FIG. 6A): significantly increased
- ROS production in SCs (DCF-DA) ([5]; SCs from treated mice, FIG. 3B): ROS production was lower
- SOD-2 protein expression in SCs ([5]; SCs from treated mice, Western blot, FIG. 3C): SOD-2 protein expression higher
- phospho(p)-p38/MAPK protein level in SCs ([5]; Western blot, FIG. 2C): found to be higher
- number of isolated Pax-7/MyoD/Myf5+ SCs ([5]; ex vivo, FIGS. 2B-2D): significantly increased number of Pax-7/MyoD/Myf5+SCs
- protection against oxidative stress (ROS production) [6]: have a protective effect on C2C12 cells against oxidative stress
- SC cell-cycle progression (SCs from double KO mice; FIG. 5G): only UAG promoted SC cell-cycle progression
- SOD-2 expression (SCs from double KO mice; FIG. 5I): induced SOD-2 expression
- protection from ROS generation (SCs from double KO mice; FIG. 5J): protected SCs from ROS generation
- p-p38/MAPK, Pax-7, MyoD, Myf5 and myogenin expression (SCs from double KO mice; FIGS. 5H, 5I): induced p-p38/MAPK, Pax-7, MyoD, Myf5 and myogenin expression
- binding to GHSR-1a (GHSR-1a): fails to bind
- PCNA expression (primary SCs; FACS, FIG. 4D): increased PCNA expression
- number of cells in S phase (primary SCs; FACS, FIG. 4E): increased
- pp38/MAPK level (primary SCs; FIG. 4C): increased levels of pp38/MAPK
- ROS production (DCF-DA) (primary SCs; FIG. 4F): ROS production was decreased
- SOD-2 expression (primary SCs; FIG. 4G): SOD-2 expression increased
- expression of Pax-7, MyoD and myogenin (primary SCs; FIGS. 4A, 4B): only UAG challenge induced expression
